# Experimental data taken from US20150050301A1, “Contiguous Overlapping Peptides for Treatment of House Dust Mites Allergy” (ANERGIS S.A., priority 2013, published 2015).
# Where two headings read alike, the source gives them in different places. Residues, ends and D or L forms follow the SMILES beside them. No end group written: not given here.
# B1: SQHGCHGDTIPRGIEYIQHNGVVQESYYRYVAREQSCRRPNAQRFGISNYCQIYPPNVNKIREALAQTHSAIAVIIGIKDLDAFRH (peptide)
# peptide: SQHGCHGDTIPRGIEYIQHNGVVQESYYRYVAREQSCRRPNAQRFGISNYCQIYPPNVNKIREALAQTHSAIAVIIGIKDLDAFRH
# B2: AIAVIIGIKDLDAFRHYDGRTIIQRDNGYQPNYHAVNIVGYSNAQGVDYWIVRNSWDTNWGDNGYGYFAANIDLMMIEEYPYVVIL (peptide)
# peptide: AIAVIIGIKDLDAFRHYDGRTIIQRDNGYQPNYHAVNIVGYSNAQGVDYWIVRNSWDTNWGDNGYGYFAANIDLMMIEEYPYVVIL
# B3: TNACSINGNAPAEIDLRQMRTVTPIRMQGGCGSCWAFSGVAATESAYLAYRNQSLDLAEQELVDCA (peptide, listed as Dermatophagoides pteronyssinus)
# chain: TNACSINGNAPAEIDLRQMRTVTPIRMQGGCGSCWAFSGVAATESAYLAYRNQSLDLAEQELVDCA
# notes: Der p 1 contiguous overlapping peptide, 66AA
# B4: TNACSINGNAPAEIDLRQMRTVTPIRMQGGCGSCWAFSGVAATESAYLAYRNQSLDLAEQELVDCASQHGCHGDTIPRGIE (peptide, listed as Dermatophagoides pteronyssinus)
# chain: TNACSINGNAPAEIDLRQMRTVTPIRMQGGCGSCWAFSGVAATESAYLAYRNQSLDLAEQELVDCASQHGCHGDTIPRGIE
# notes: Der p 1 contiguous overlapping peptide, 81AA
# B5: TNACSINGNAPAEIDLRQMRTVTPIRMQGGCGSCWAFSGVAATESAYLAYRNQSLDLAEQELVDCASQHG (peptide, listed as Dermatophagoides pteronyssinus)
# chain: TNACSINGNAPAEIDLRQMRTVTPIRMQGGCGSCWAFSGVAATESAYLAYRNQSLDLAEQELVDCASQHG
# notes: Der p 1 contiguous overlapping peptide, 70AA, T99 to G168
# Tests used:
# [1] = Solubility Characteristics of COPs; type: physicochemical
# Description: All COPs were synthesized by solid phase fmoc chemistry at research scale to allow determination of IgE binding. […] Peptides were resuspended either in water at 2 mg/ml or at 10 to 20 mg per ml in DMSO (see Table 1) and frozen in aliquots.
# [2] = tested on: IgE of sera of house dust mite allergic patients binding to nDer p 1; assay: Competition ELISA on Der p 1 coated plates; parameters: species or system human; settings: for effect of denaturing salts on IgE binding (Der p 1 competition ELISA): denaturing salts incl. guanidinium chloride or urea, 30 min pre-incubation with 1M guanidinium chloride; for IgE binding in competition ELISA (Der p 1): sera from patients allergic to house dust mites, COPs 10^−5 to 10^−10 M
# Description: (§1) Purified Der p 1 or Der p 2 at 1.0 μg/ml were coated overnight on 96-well Nunc Maxisorp® immunoplates (Thermo Fisher Scientific Inc., Wohlen, Switzerland). After blocking with 1% BSA, either twenty-fold, thirty-fold or forty-fold up to 200-fold dilutions of patient serum were added depending on specific IgE content. […] Sera of allergic patients were obtained from US and Europe (PlasmaLab International, Everett, Wash., USA and Biomnis, Lyon, France) respectively) selected for positive CAP for D. pteronyssinus and clear signal over background and used to test for competition with the peptides. Serial dilutions of each set of COPs, namely for Der p 1 Set A, B, C or D and for Der p 2 mixes D, E or F at concentrations ranging from 10^−5 to 10^−10 M were pre-incubated with selected serums for 15 min. on ice.
# [3] = tested on: IgE of sera of house dust mite allergic patients binding to nDer p 2; assay: Competition ELISA on Der p 2 coated plates; parameters: species or system human; settings: sera from patients allergic to house dust mites; COPs 10^−5 to 10^−10 M
# Description: as §1
Molecule,Conc. ([1]; Solvent H2O),Conc. [1],IgE binding in competition ELISA (Der p 1) [2],other results
CC[C@H](C)[C@H](NC(=O)[C@H](CCC(=O)O)NC(=O)[C@H](Cc1c[nH]cn1)NC(=O)[C@H](CC(N)=O)NC(=O)[C@H](C)NC(=O)[C@H](CS)NC(=O)[C@H](CC(=O)O)NC(=O)[C@H](CCCCN)NC(=O)[C@@H](NC(=O)[C@H](CC(=O)O)NC(=O)[C@@H](NC(=O)[C@H](CCC(N)=O)NC(=O)[C@@H](N)CC(=O)O)C(C)C)C(C)C)C(=O)N[C@@H](CCCCN)C(=O)N[C@@H](CCCCN)C(=O)N[C@H](C(=O)N[C@@H](CC(C)C)C(=O)N[C@H](C(=O)N1CCC[C@H]1C(=O)NCC(=O)N[C@@H](CS)C(=O)N[C@@H](Cc1c[nH]cn1)C(=O)NCC(=O)N[C@@H](CO)C(=O)N[C@@H](CCC(=O)O)C(=O)N1CCC[C@H]1C(=O)N[C@@H](CS)C(=O)N[C@H](C(=O)N[C@H](C(=O)N[C@@H](Cc1c[nH]cn1)C(=O)N[C@@H](CCCNC(=N)N)C(=O)O)[C@@H](C)CC)[C@@H](C)CC)C(C)C)C(C)C [AllerDM2.6] (H-DQVDVKDCANHEIKKVLVPGCHGSEPCIIHR-OH; N-terminus and C-terminus assumed),3000 µg/mL,,,
ASQHGCHGDTIPRGIEYIQHNGVVQESYYRYVAREQS [AllerDM1.53],4000 µg/mL,,,solubility in words [1]: solubility in water
ASQHGCHGDTIPRGIEYIQHNGVVQESYYRYVAREQSCRRPNAQRFGISNYCQIYPPNVNKIRE [AllerDM1.52],,2300 µg/mL,still bound IgE,solubility in words [1]: solubility in water; effect of denaturing salts on IgE binding (Der p 1 competition ELISA) [2]: strongly diminished IgE binding
DQVDVKDCANHEIKKVLVPGCHGSEPCIIHRGKPFQLEAVFEANQNTKTAKIEIKASIDGLEVDVPGIDPNA [AllerDM2.1],,,,Conc. ([1]; pH 5): 1000 µg/mL; IgE binding in competition ELISA (Der p 2) [3]: did not bind IgE
HGSEPCIIHRGKPFQLEALFEANQNSKTAKIEIKASIDGLEVDVPGIDPNACHYMK (cysteines drawn unpaired) [AllerDM2.4],,4200 µg/mL,,
HYMKCPLVKGQQYDIKYTWNVPKIAPKSENVVVTVKVLGDNGVLACAIATHAKIRD (cysteines drawn unpaired) [AllerDM2.5],1500 µg/mL,,,
KVLGDNGVLACAIATHAKIRD [AllerDM2.9],1000 µg/mL,,,
KYTWNVPKIAPKSENVVVTVKVLGDNGVLACAIATHAKIRD [AllerDM2.8],3500 µg/mL,,,
LAEQELVDCASQHGCHGDTIPRGIEYIQHNGVVQESYYRYVAREQSCRRPNAQRFGISNYCQIYPPNVNKIRE [AllerDM1.5],,1700 µg/mL,responsible for the reactivity,solubility in words [1]: solubility in water
PNVNKIREALAQTHSAIAVIIGIKDLDAFRHYDGR [AllerDM1.63],2000 µg/mL,,,
PNVNKIREALAQTHSAIAVIIGIKDLDAFRHYDGRTIIQRDNGYQPNYHAVNIVGYSNAQGVD [AllerDM1.62],,2500 µg/mL,residual IgE binding,effect of denaturing salts on IgE binding (Der p 1 competition ELISA) [2]: strongly diminished IgE binding
PNVNKIREALAQTHSAIAVIIGIKDLDAFRHYDGRTIIQRDNGYQPNYHAVNIVGYSNAQGVDYWIVRNSWDT [AllerDM1.6],,800 µg/mL,responsible for the reactivity,
RHYDGRTIIQRDNGYQPNYHAVNIVGYSNAQGVD [AllerDM1.64],4000 µg/mL,,,
SEPCIIHRGKPFQLEALFEANQNSKTAKIEIKASIDGLEVDVPGIDPNACHYMKCPLVKGQQYDIKYTWNVPKIA [AllerDM2.7],,3500 µg/mL,,IgE binding in competition ELISA (Der p 2) [3]: residual IgE binding
SIDGLEVDVPGIDPNACHYMKCPLVKGQQYDIKYTWNVPKIAPKSENVVVTVKVLGD (cysteines drawn unpaired) [AllerDM2.10],,,,Conc. ([1]; H2O after acidification with HCl and neutralization with NaOH): 2000 µg/mL
B1,,2000 µg/mL,Residual IgE binding was observed,
B2,,500 µg/mL,Residual IgE binding was observed,
B3,,,no detectable IgE binding,"solubility remark ([1]; 1.2: when added to Citrate buffer or PBS at 2 × 10^−5M): NaOH) Difficult pH8; Conc. ([1]; H2O, pH adjusted with HCl and NaOH): 1000 µg/mL"
B4,,,,Conc. ([1]; H2O after addition of HCl and NaOH and citrate buffer pH5.5): 1000 µg/mL
B5,,,no detectable IgE binding,Conc. ([1]; Solvent 7M guanidinium chloride): 30000 µg/mL
